Test results published in ChEMBL document CHEMBL5465560, “Selectivity Literature for EUbOPEN Chemogenomic Library” (2024).

What was measured:
[1] = biological target: Phosphatidylinositol 4,5-bisphosphate 3-kinase catalytic subunit gamma isoform (Homo sapiens) (UniProt P48736); assay: Selectivity interaction (KinomeScan (DiscoverX)) EUB0000595a PIK3CG; conditions: at 10 µM
[2] = biological target: High affinity nerve growth factor receptor (Homo sapiens, UniProt P04629); assay: Selectivity interaction (KinomeScan (DiscoverX)) EUB0000045b NTRK1
Focal adhesion kinase 1 = Focal adhesion kinase 1 (Homo sapiens, UniProt Q05397); assay: Selectivity interaction (KinomeScan (DiscoverX)) EUB0000666a PTK2; conditions: at 10 µM
[3] = biological target: Cyclin-dependent kinase 7 (Homo sapiens, UniProt P50613); conditions: at 10 µM
[4] = biological target: T1, Dual specificity protein kinase TTK (Homo sapiens) (UniProt P33981); assay: Selectivity interaction (KinomeScan (DiscoverX)) EUB0001619a TTK; conditions: at 1 µM
T1 sequence (whole entry): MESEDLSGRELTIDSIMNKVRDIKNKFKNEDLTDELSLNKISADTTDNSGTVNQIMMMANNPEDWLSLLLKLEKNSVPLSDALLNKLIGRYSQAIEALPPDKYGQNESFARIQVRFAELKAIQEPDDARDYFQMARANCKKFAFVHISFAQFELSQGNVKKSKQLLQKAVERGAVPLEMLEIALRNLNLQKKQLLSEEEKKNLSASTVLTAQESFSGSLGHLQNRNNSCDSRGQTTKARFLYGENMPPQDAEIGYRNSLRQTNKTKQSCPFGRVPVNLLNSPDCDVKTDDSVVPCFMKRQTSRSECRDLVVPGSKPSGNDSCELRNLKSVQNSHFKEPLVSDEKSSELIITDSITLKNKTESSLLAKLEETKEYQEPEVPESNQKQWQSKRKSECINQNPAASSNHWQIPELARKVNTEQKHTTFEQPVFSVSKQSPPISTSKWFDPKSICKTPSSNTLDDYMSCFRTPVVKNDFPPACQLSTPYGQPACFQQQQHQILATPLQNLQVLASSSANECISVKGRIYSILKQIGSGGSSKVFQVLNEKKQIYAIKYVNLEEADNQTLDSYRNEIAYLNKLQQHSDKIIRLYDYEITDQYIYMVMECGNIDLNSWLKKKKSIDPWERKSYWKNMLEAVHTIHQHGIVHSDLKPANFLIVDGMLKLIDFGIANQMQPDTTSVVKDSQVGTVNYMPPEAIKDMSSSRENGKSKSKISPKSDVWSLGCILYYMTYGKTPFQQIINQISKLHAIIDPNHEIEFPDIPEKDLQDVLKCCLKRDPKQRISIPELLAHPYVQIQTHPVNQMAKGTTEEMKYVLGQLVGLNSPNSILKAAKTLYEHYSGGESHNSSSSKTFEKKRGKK

[5] = biological target: T2, Aurora kinase A (Homo sapiens) (UniProt O14965); assay: Selectivity interaction (ActivX KiNativ screen (kinase selectivity in THP-1 cell lysates)) EUB0000639a STK6; type: subcellular; conditions: lysate, at 0.01 µM
T2 sequence (whole entry): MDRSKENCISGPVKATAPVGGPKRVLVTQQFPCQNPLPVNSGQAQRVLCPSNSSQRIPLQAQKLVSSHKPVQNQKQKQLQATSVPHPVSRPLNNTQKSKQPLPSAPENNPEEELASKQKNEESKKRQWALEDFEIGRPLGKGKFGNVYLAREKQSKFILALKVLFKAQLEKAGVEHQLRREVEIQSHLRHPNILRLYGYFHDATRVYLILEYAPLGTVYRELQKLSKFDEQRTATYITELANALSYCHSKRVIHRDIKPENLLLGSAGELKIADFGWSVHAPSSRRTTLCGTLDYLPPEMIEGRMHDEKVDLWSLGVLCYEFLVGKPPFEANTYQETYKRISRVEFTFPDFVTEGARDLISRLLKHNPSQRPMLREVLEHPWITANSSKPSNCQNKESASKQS

[6] = biological target: Serine/threonine-protein kinase mTOR (Homo sapiens, UniProt P42345); assay: Selectivity interaction (Kinase panel (Invitrogen)) EUB0000639a MTOR; conditions: at 200 nM
[7] = biological target: Tyrosine-protein kinase Lyn (Homo sapiens, UniProt P07948); assay: Selectivity interaction (ActivX KiNativ screen (kinase selectivity in THP-1 cell lysates)) EUB0000639a LYN; type: subcellular; conditions: lysate, at 5 µM
[8] = biological target: T3, Non-receptor tyrosine-protein kinase TNK1 (Homo sapiens) (UniProt Q13470); assay: Selectivity interaction (KinomeScan (DiscoverX)) EUB0000092b TNK1; conditions: at 10 µM
T3 sequence (whole entry): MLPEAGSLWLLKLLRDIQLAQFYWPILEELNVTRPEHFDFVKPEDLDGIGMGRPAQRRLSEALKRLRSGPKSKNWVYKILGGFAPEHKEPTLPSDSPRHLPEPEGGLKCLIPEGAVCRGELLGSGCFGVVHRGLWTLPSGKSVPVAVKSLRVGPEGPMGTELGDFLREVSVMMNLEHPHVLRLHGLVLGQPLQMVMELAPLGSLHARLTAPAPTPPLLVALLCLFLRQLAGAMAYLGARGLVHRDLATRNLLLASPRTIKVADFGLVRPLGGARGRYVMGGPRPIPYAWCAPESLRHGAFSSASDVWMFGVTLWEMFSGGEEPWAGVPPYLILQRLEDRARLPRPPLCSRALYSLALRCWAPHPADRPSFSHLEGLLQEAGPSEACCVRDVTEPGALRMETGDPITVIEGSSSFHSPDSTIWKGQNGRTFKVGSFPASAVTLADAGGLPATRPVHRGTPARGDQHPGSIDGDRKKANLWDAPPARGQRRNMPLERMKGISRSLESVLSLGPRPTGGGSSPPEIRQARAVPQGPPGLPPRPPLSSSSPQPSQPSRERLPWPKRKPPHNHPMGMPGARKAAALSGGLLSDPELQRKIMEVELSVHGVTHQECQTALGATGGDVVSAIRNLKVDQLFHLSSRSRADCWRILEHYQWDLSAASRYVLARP

Sequence of High affinity nerve growth factor receptor (P04629 33-796 limits assumed): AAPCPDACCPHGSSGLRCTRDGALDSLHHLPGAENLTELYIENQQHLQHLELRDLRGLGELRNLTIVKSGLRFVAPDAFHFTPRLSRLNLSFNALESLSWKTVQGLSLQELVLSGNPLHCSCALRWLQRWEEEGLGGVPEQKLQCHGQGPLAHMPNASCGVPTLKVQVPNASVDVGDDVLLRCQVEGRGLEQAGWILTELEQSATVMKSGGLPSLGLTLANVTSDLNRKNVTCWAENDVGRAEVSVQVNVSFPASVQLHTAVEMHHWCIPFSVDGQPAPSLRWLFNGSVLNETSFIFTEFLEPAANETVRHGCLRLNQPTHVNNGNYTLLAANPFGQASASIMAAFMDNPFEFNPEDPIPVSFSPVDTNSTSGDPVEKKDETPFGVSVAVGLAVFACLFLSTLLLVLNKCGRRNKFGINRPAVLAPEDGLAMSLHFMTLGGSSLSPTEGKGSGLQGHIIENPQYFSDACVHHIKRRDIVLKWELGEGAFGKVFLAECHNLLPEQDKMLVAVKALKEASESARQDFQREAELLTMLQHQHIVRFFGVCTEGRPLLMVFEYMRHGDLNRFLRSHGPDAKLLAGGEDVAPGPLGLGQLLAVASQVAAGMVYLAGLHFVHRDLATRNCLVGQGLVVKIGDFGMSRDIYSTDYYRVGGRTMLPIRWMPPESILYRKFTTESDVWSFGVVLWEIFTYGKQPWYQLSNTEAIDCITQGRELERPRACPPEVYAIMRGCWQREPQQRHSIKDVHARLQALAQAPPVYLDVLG
Sequence of Phosphatidylinositol 4,5-bisphosphate 3-kinase catalytic subunit gamma isoform (Homo sapiens) (P48736 whole entry, looked up, canonical isoform): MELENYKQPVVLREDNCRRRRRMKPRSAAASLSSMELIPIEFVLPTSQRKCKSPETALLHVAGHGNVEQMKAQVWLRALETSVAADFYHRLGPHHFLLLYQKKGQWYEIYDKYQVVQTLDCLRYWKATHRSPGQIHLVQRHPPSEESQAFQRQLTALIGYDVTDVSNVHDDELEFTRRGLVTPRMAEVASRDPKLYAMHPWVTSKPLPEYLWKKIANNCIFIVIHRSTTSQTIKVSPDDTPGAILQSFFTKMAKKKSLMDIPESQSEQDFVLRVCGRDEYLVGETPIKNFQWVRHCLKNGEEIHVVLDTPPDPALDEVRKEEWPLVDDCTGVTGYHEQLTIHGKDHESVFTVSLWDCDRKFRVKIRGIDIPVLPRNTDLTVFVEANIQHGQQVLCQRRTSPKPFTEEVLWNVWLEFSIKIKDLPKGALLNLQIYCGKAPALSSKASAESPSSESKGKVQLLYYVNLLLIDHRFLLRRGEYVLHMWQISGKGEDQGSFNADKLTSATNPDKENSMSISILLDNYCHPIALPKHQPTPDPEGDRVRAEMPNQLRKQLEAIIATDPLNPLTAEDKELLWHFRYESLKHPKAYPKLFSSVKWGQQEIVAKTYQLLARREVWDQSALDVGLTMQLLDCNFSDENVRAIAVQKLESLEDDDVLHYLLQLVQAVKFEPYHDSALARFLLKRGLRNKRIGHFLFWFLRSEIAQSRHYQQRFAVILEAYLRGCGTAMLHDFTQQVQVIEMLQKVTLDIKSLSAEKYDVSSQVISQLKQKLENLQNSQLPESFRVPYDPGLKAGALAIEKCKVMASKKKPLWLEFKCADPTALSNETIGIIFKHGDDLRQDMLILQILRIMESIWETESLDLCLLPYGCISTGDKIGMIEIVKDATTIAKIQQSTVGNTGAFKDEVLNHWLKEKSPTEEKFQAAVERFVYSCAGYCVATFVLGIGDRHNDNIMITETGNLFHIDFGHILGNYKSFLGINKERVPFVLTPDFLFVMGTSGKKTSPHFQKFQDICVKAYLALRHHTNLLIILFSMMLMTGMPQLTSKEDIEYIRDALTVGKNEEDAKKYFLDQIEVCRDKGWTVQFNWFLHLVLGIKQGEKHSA
Sequence of Cyclin-dependent kinase 7 (P50613 whole entry): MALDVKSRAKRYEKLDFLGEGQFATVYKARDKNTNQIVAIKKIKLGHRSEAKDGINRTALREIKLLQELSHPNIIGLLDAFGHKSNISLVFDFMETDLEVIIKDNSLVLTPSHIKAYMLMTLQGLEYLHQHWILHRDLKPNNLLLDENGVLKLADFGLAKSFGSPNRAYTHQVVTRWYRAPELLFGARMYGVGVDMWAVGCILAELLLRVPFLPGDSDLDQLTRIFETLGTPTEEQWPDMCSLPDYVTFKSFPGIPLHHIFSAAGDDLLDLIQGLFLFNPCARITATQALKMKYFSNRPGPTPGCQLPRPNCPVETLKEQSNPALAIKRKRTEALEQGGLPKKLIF
Sequence of Focal adhesion kinase 1 (Q05397 2-1052 limits assumed): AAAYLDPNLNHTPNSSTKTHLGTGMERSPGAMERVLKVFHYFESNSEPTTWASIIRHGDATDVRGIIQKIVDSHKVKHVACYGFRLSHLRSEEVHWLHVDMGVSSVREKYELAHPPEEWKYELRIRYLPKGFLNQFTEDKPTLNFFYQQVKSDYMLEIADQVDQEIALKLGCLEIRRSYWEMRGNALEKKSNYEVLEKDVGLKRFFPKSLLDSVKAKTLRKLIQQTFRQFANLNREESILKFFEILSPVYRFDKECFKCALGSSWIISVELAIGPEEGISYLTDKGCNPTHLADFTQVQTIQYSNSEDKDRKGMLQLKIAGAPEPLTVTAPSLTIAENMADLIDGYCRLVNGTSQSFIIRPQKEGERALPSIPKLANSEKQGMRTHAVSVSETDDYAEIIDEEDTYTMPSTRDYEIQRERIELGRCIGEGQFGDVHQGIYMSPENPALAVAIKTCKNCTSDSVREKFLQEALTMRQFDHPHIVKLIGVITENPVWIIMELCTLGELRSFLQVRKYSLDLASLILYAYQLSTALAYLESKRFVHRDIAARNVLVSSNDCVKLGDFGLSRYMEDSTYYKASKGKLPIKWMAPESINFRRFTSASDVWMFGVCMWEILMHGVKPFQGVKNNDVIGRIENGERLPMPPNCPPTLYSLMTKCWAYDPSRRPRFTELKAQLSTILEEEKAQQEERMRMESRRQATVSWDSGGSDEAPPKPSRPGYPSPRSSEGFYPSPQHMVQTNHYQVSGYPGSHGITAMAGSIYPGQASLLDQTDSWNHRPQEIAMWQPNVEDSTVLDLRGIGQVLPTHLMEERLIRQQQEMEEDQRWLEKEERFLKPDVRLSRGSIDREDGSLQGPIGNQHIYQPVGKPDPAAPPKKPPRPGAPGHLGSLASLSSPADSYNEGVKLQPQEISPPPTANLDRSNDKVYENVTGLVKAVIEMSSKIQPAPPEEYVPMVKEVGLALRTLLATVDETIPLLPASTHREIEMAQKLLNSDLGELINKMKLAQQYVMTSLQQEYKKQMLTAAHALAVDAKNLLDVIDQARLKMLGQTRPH
Sequence of Tyrosine-protein kinase Lyn (P07948 2-512 limits assumed): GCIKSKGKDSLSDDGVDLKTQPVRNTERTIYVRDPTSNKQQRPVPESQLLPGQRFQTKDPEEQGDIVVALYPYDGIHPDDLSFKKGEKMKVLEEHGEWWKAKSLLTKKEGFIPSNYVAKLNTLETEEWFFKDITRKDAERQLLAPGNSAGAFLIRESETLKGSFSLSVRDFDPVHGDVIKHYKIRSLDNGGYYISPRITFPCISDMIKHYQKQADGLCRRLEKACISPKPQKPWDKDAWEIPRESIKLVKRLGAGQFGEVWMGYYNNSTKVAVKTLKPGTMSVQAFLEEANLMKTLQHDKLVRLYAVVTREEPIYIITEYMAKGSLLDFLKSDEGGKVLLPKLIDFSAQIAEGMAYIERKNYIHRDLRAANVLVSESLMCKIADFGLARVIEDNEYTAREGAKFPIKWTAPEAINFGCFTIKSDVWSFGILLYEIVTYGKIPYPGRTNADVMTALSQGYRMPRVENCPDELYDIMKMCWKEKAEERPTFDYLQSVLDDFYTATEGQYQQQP

COCC(=O)NC/C=C/c1ccc2ncnc(Nc3ccc(Oc4ccc(C)nc4)c(C)c3)c2c1 [CP-724714]
% of control [1]: 100%

C=CC(=O)Nc1cc(-n2c(=O)ccc3cnc4ccc(-c5ccc(NS(C)(=O)=O)cc5)cc4c32)ccc1C
% of control ([2]; at 1 µM): 100%
% of control ([2]; at 10 µM): 100%

O=C(NOC[C@H](O)CO)c1ccc(F)c(F)c1Nc1ccc(I)cc1F
% of control (Focal adhesion kinase 1): 85%

Cc1cc([C@@H](C)Nc2ccccc2C(=O)O)c2nc(N3CCOCC3)cc(=O)n2c1 [AZD-6482]
% of control [3]: 97%

N#Cc1cccc(-c2c[nH]c3ncnc(N4CCOCC4)c23)c1
% of control [4]: 92%

CC[C@@H]1[C@H](F)C(=O)N[C@@H]1COc1nccc2cc(C(N)=O)c(OC)cc12 [ZIMLOVISERTIB]
% of inhibition [5]: -3.4%
% of inhibition [6]: 3.37%
% of inhibition [7]: -9.2%

CCC(=O)N1CCN(c2ccc(-n3c(=O)ccc4cnc5ccc(-c6cnc7ccccc7c6)cc5c43)cc2C(F)(F)F)CC1
% of control [8]: 6.8%
